The text below walks through data of patent US20140142140A1, “PHARMACEUTICAL COMPOSITION FOR NEUROLOGICAL DISORDERS” (priority 2011, published 2014).

Series [1] relates to mood stabilisation or epileptic symptoms or events. To be noted: cited from earlier work.
Series [2] concerns patients with Alzheimer's type dementia. The series is described as follows: Case reports, Mild Cognitive Impairment (MCI) and Dementia (Example 1). Format: in vivo, human. To be noted: Patient 1B, 7 year history of Alzheimer's type dementia. The source says: Patient 1A was an elderly person with history of impairment of cognitive function. Presumptive diagnosis of possible dementia of Alzheimers type.
Patient 1B was an elderly retired person with a 7 year history of Alzheimer's type dementia treated with the cholinesterase inhibitor Donepezil. […] Their cognitive function has gradually deteriorated since this time. […] Their reading was more fluent being better able to follow the meaning of the text. There was also improvement in their Stroop Test particularly in part three, the more cognitively demanding where their accuracy improved from 50 to 90%.

Series [3] relates to patients with autism / ASD / communication disorder. The series is described as follows: Case reports, Autism and other Pervasive Development Disorders (Example 6). Format: in vivo, human. The source says: Patient 6A: Adult, diagnosed in childhood with autism and ADHD. A long history of behavioural disturbance with frequent episodes of violence despite treatment with high-dose antipsychotic medication. […] The high-dose antipsychotic medication has been reduced without any associated loss of recent benefit. […] A history of behavioural disturbance and educational impairment. […] Patient 6C was an adult, diagnosed in childhood with autism and ADHD with a history of behavioural disturbance and educational impairment. […] Patient 6D: Adult, diagnosed in childhood with autism, ADHD and antisocial personality traits. […] Patient C's conversation became more appropriate and consistent together with reported improvements in significant relationships. […] Patient 6E was an adult, diagnosed with communication disorder and major depression. […] Patient 6F was an adult with ASD. […] The patient's conversation became more appropriate and consistent and improvements in significant relationships were reported. A reduction in the reliance on alcohol to alleviate anxiety in social situations was observed. […] Sodium valproate was withdrawn and improvement was noted. […] Patient 6G was as adult, diagnosed in childhood with ASD. […] Sodium valproate was withdrawn. […] This has also been associated with improvements in reading and verbal understanding. These benefits have been sustained in some situations for three years. Although difficult to be objective, there seems to be good evidence of ongoing improvement. […] Improvements in coordination, in fine and gross motor control have been reported and improvement in gait which frequently is a significant issue for individuals with autistic disorders.

Structures can show the parent of a compound that is named as a salt. Where two headings read alike, the source gives them in different places.

For the molecule `CCC1(c2ccc(N)cc2)CCC(=O)NC1=O` (stereo not shown) [Aminoglutethimide], in series [1] (per day), the “Minimum typical dose/day effective for mood stabilisation or treatment of epileptic symptoms or events” value (shortened to “Minimum typical dose/day effective”) is given as 125 mg.
In the case of `CCC1(c2ccccc2)C(=O)NC(=O)NC1=O.CNC(C)CC1CCCCC1` [Barbexaclone], the “Minimum typical dose/day effective” value in series [1] (per day) is on record as 200 mg in divided doses.
With `CCC[C@@H]1CC(=O)N([C@@H](CC)C(N)=O)C1` [Brivaracetam], the “Minimum typical dose/day effective” value in series [1] (per day) was 100 mg.
For the molecule `NC(=O)N1c2ccccc2C=Cc2ccccc21` [Carbamazepine], the “Minimum typical dose/day effective” value in series [1] (per day) is listed as 400 mg.
With `CN1C(=O)CC(=O)N(c2ccccc2)c2cc(Cl)ccc21` [Clobazam], in series [1] (in vivo), the “Minimum typical dose/day effective” value is given as 5 mg/kg daily.
With `O=C1CN=C(c2ccccc2Cl)c2cc([N+](=O)[O-])ccc2N1` [Clonazepam], in series [1] (per day), the “Minimum typical dose/day effective” value is reported as 1 mg.
Consider `COc1cc2c(cc1OC)C(=O)C(CC1CCN(Cc3ccccc3)CC1)C2` (stereo not shown) [Donepezil], for which, in series [2], the “subjective cognitive functioning and ADAS-cog” value was “significant improvement in their subjective cognitive functioning”.
Consider `CCN1C(=O)OC(C)(C)C1=O` [Ethadione], for which the “Minimum typical dose/day effective” value in series [1] (per day) is 1000 mg.
Turning to `CCC1(C)CC(=O)NC1=O` (stereo not shown) [Ethosuximide], in series [1] (per day), the “Minimum typical dose/day effective” value is listed as 1000 mg.
Regarding `CCN1C(=O)NC(c2ccccc2)C1=O` (stereo not shown) [Ethotoin], the “Minimum typical dose/day effective” value in series [1] (per day) is 1000 mg.
On to `NC(=O)OCC(COC(N)=O)c1ccccc1` [Felbamate], for which the “Minimum typical dose/day effective” value in series [1] (per day) was 1200 mg.
With `O=C1NC(c2ccccc2)(c2ccccc2)C(=O)N1COP(=O)(O)O` [Fosphenytoin Sodium], in series [1] (per day), the “Minimum typical dose/day effective” value was 10 mg/kg.
With `NCC1(CC(=O)O)CCCCC1` [Gabapentin, 2-[1-(aminomethyl)cyclohexyl]acetic acid], the “Minimum typical dose/day effective” value in series [1] (per day) was 900 mg.
Regarding `COC[C@@H](NC(C)=O)C(=O)NCc1ccccc1` [Lacosamide], in series [1] (per day), the “Minimum typical dose/day effective” value is 200 mg.
In the case of `Nc1nnc(-c2cccc(Cl)c2Cl)c(N)n1` [Lamotrigine, 3,5-diamino-6-(2,3-dichlorophenyl)-1,2,4-triazine], the “Minimum typical dose/day effective” value in series [1] (per day) is given as 100 mg.
Take `CC[C@@H](C(N)=O)N1CCCC1=O` [Levetiracetam]: the “Minimum typical dose/day effective” value in series [1] (per day) is recorded as 1000 mg.
As to `COC1=CC(=O)OC1C(O)c1ccccc1Cl` (stereo not shown) [Losigamone], in series [1] (per day), the “Minimum typical dose/day effective” value is on record as 1500 mg.
For `CCC1(c2ccccc2)NC(=O)N(C)C1=O` (stereo not shown) [Mephenytoin], in series [1] (per day), the “Minimum typical dose/day effective” value is reported as 200 mg.
`CCC1(c2ccccc2)NC(=O)N(C)C1=O` (stereo not shown) [Methoin]: the “Minimum typical dose/day effective” value in series [1] (per day) was 1000 mg.
On to `CN1C(=O)CC(C)(c2ccccc2)C1=O` (stereo not shown) [Methsuximide], for which, in series [1] (per day), the “Minimum typical dose/day effective” value was 300 mg.
As for `NC(=O)N1c2ccccc2CC(=O)c2ccccc21` [Oxcarbazepine], the “Minimum typical dose/day effective” value in series [1] (per day) is 600 mg.
`CCC1(C)OC(=O)N(C)C1=O` (stereo not shown) [Paramethadione]: the “Minimum typical dose/day effective” value in series [1] (per day) was 300 mg.
As to `N#Cc1ccccc1-c1cc(-c2ccccn2)cn(-c2ccccc2)c1=O` [Perampanel], the “Minimum typical dose/day effective” value in series [1] (per day) is given as 2 mg.
`NC(=O)NC(=O)Cc1ccccc1` [Phenacemide]: the “Minimum typical dose/day effective” value in series [1] (per day) is given as 500 mg.
As for `CCC(C(=O)NC(N)=O)c1ccccc1` (stereo not shown) [Pheneturide], the “Minimum typical dose/day effective” value in series [1] (per day) is on record as 600 mg.
For `CN1C(=O)CC(c2ccccc2)C1=O` (stereo not shown) [Phensuximide], the “Minimum typical dose/day effective” value in series [1] (per day) is 1000 mg.
For the molecule `CC(C)C[C@H](CN)CC(=O)O` [Pregabalin, (S)-3-(aminomethyl)-5-methylhexanoic acid], in series [1] (per day), the “Minimum typical dose/day effective” value is listed as 300 mg.
Regarding `CCC1(c2ccccc2)C(=O)NCNC1=O` [Primidone], the “Minimum typical dose/day effective” value in series [1] (per day) is given as 750 mg.
For `NS(=O)(=O)c1ccc(N2CCCCS2(=O)=O)cc1` [Sultiame], the “Minimum typical dose/day effective” value in series [1] (per day) is 200 mg.
Consider `Cc1ccsc1C(=CCCN1CCC[C@@H](C(=O)O)C1)c1sccc1C` [Tiagabine Hydrochloride], for which, in series [1] (per day), the “Minimum typical dose/day effective” value is recorded as 30 mg.
As to `CC1(C)O[C@@H]2[C@@H](CO[C@@]3(COS(N)(=O)=O)OC(C)(C)O[C@@H]23)O1` [Topiramate, 2,3:4,5-Bis-O-(1-methylethylidene)-beta-D-fructopyranose sulfamate], the “Minimum typical dose/day effective” value in series [1] (per day) was 100 mg.
On to `CN1C(=O)OC(C)(C)C1=O` [Trimethadione], for which the “Minimum typical dose/day effective” value in series [1] (per day) is given as 900 mg.
Consider `C=CC(N)CCC(=O)O` (stereo not shown) [Vigabatrin], for which, in series [1] (per day), the “Minimum typical dose/day effective” value is 1000 mg.
`NS(=O)(=O)Cc1noc2ccccc12` [Zonisamide]: in series [1] (per day), the “Minimum typical dose/day effective” value is given as 200 mg.
`CCCC(CCC)C(=O)O.[Na]` [sodium valproate, sodium di-n-propylacetic acid]: the “behaviour, verbal and non-verbal communication” value in series [3] (Patient 6, ASD, 50 mg daily) is “significant improvement in behaviour, verbal and non-verbal communication”. The “reintroduction at lower dose” value in series [3] (Patient 6, 25 mg daily) is recorded as “successfully reintroduced”. The “adverse effects within three days” value in series [3] (Patient 6, 50 mg daily) was “increasing cognitive slowing, general malaise and tiredness”. Also, the communication result in series [3] (Patient 6E, communication disorder and major depression, 50 mg) is “significant improvement in communication”; in series [3] (Patient 6E, 25 mg daily), “sustained improvement in the ability to communicate with less effort”. For the same molecule, the “benefits when medication ceased” value in series [3] (Patient 6E, medication ceased) is “initial benefits were lost”. For the same molecule, the “communication, eye contact, motor tics, social engagement” value in series [3] (Patient 6G, 25 mg on alternate days) is “sustained improvement in the communication, eye contact during dialogue, reduction in motor tics and greater social engagement and independently motivated activity”. Further, the “communication and other symptoms of ASD” value in series [3] (Patient 6G, 50 mg daily) was “improvement in communication and other symptoms of ASD”. Besides, the side-effects entry in series [3] (Patient 6G, 50 mg daily) was “low mood and irritability”.
